Experimental data as given in patent US3956328A, “S-triazolo(1,5-a)pyridine derivative” (Kyorin Seiyaku Kabushiki Kaisha, priority 1973, dated 1976).
Where a name gives a salt, the structure may show the parent alone.

Tests used:
[1] = Solubility and hygroscopicity of the salt; assay type: physicochemical
ddN mice = details: cited from earlier work
[2] = test system: histamine-induced asthma attack; test: Inhibitory action on histamine-induced asthma attack in guinea pigs; assay type: in vivo, guinea pig; details: for z1 (statistical value): Mann and Whitney U test
Description: Inhibitory actions on histamine-induced asthma attack: Male guinea pigs, of about 300 g body weight are used. Asthma attack is provoked by an aerosol of 0.2% histamine dihydrochloride solution in physiological saline for 10 minutes. The inhibitory actions are examined by shock grades, No. of collapsed guinea pigs/No. of provoked guinea pigs and survival rate. The tested compounds are orally given 2 hrs. prior to spraying of histamine solution.
A/B: No. of collapsed guinea pigs/ No. of provoked guinea pigs.
Statistical comparisons were carried out with the Mann and Whtineys' U

[3] = test system: BSA induced asthma in guinea pigs; test: Inhibitory action on BSA-induced (experimentally allergic) asthma attack in passively sensitized guinea pigs; assay type: in vivo, guinea pig; details: for p (statistical significance vs non treatment) / z1 (statistical value vs non treatment): severity; for z1 (statistical value vs non treatment): Mann and Whitney U test
Description: The present compound is studied on asthma attacks induced by the antigen-antibody reaction in guinea pigs. The guinea pigs are sensitized passively by the injection of 0.1 to 0.3 ml /100g body weight of rabbit antiserum to BSA (bovine serum albumin) into the ear vein. Forty six hours after passive sensitization, the guinea pigs are orally given the tested compounds. Two hours after oral administration, the asthma attack is provoked by an aerosol injection (0.1 ml/min.) of 1% BSA solution in physiological saline into the plastic chamber in which the testing guinea pig is placed. The symptoms of the asthma attack are observed for 10 minutes and scored on the following shock indices. The shock indices are examined by the shock grades, No. of collapsed guinea pigs/No. of used animals and survival rate.
The shock grades are as follows:
1 slight stimulation of expiration
2 stimulation of expiration (labored expiration)
3 attack of singultation
4 the strongest attack of collapse and struggle
but recovery from collapse within 5 minutes
5 recovery from collapse within 5 to 10 minutes
6 interruption of expiration to death within 10
*Statistical comparisons were carried out with the Mann and Whitneys' U
z1 : The statistical value between non treatment and each tested
z2 : The statistical value between the present compound and […]

[4] = test system: guinea pig tracheal chain strips; test: Anti histaminic action: histamine-induced contraction of guinea pig tracheal chain strips; details: 4×10^^-5 M; Tyrodes solution
[5] = test system: heterologous PCA in guinea pigs; test: Heterologous passive cutaneous anaphylaxis (PCA) in guinea pigs; assay type: in vivo, guinea pig; details: 25 mg/kg po, 30 min. before challenge; rabbit antiserum to egg albumin
Description: Male guinea pigs are passively sensitized by the intradermal injection of rabbit antiserum to egg albumin and challenged by the intravenous injection of egg albumin 4 hrs. after the sensitization. The test compounds are orally given 30 min. before the challenge.

guinea pig ileum = test: Schultz-Dale reaction in guinea pig ileum sensitized actively with egg albumin; details: antigen egg albumin
Description: Male guinea pigs are actively sensitized and their ileum preparations are treated by Schultz-Dales method (J. Pharmacol. Exp. Ther., 4, 167, 1913). […] These preceeding pharmacological properties of the present compound are due to triazolo [1,5-a]pyridine.

[6] = antiserum 0.1 ml/100 g, 0.5 mg/kg p.o.
[7] = antiserum 0.1 ml/100 g, 1.0 mg/kg p.o.
[8] = antiserum 0.1 ml/100 g, 5.0 mg/kg p.o.
[9] = antiserum 0.2 ml/100 g, 5 mg/kg p.o.
[10] = antiserum 0.3 ml/100 g, 5 mg/kg p.o.

c1ccc(C(c2ccccc2)N2CCN(CCCc3nc4ccccn4n3)CC2)cc1 [dihydrochloride salt]
solubility in alcohols ([1]; alcohols): soluble | hygroscopicity ([1]; fine needles from ethanol-petroleum ether): hydroscopic | solubility in water ([1]; water): soluble

CN1CCCN(C(c2ccccc2)c2ccc(Cl)cc2)CC1 (stereo not drawn) [homochlorcyclizine, reference compound]
acute LD50 (reported for standard drug) (ddN mice): 353 mg/kg | A/B: No. of collapsed / No. of provoked guinea pigs ([2]; 2.50 mg/kg p.o.): 5/11 | A/B: collapsed guinea pigs, number in parentheses (percentage) ([2]; 2.50 mg/kg p.o.): 45.5 | Survival rate (animals) ([2]; 2.50 mg/kg p.o.): 11/11 | Survival rate, number in parentheses (percentage) ([2]; 2.50 mg/kg p.o.): 100 | z1 (statistical value) ([2]; 2.50 mg/kg p.o. vs non treatment 2 (so in the source)): > 5 | significance of difference from non treatment 2 (so in the source) ([2]; 2.50 mg/kg p.o., homochlorcyclizine): markedly significant difference | A/B: No. of collapsed / No. of provoked guinea pigs ([2]; 10.0 mg/kg p.o.): 1/6 | A/B: collapsed guinea pigs, number in parentheses (percentage) ([2]; 10.0 mg/kg p.o.): 16.7 | Survival rate (animals) ([2]; 10.0 mg/kg p.o.): 6/6 | Survival rate, number in parentheses (percentage) ([2]; 10.0 mg/kg p.o.): 100 | z1 (statistical value) ([2]; 10.0 mg/kg p.o. vs non treatment 1 (so in the source)): 3.315 | p (significant difference from non treatment 1) ([2]; 10.0 mg/kg p.o., homochlorcyclizine): 0.0005 | A/B: No. of collapsed / No. of provoked guinea pigs [3, 6]: 4/6 | A/B: collapsed guinea pigs, percentage [3, 6]: 66.7% | Survival rate (animals) [3, 6]: 5/6 | Survival rate, percentage [3, 6]: 83.3% | A/B: No. of collapsed / No. of provoked guinea pigs [3, 7]: 6/10 | A/B: collapsed guinea pigs, percentage [3, 7]: 60% | Survival rate (animals) [3, 7]: 10/10 | Survival rate, percentage [3, 7]: 100% | A/B: No. of collapsed / No. of provoked guinea pigs [3, 8]: 1/6 | A/B: collapsed guinea pigs, percentage [3, 8]: 16.7% | Survival rate (animals) [3, 8]: 6/6 | Survival rate, percentage [3, 8]: 100% | A/B: No. of collapsed / No. of provoked guinea pigs [3, 9]: 4/6 | A/B: collapsed guinea pigs, percentage [3, 9]: 66.7% | Survival rate (animals) [3, 9]: 6/6 | Survival rate, percentage [3, 9]: 100% | A/B: No. of collapsed / No. of provoked guinea pigs [3, 10]: 1.5 | A/B: collapsed guinea pigs, percentage [3, 10]: 20% | Survival rate (animals) [3, 10]: 5/5 | Survival rate, percentage [3, 10]: 100% | p (statistical significance vs non treatment) [3, 6]: < 0.02 | z1 (statistical value vs non treatment) [3, 6]: 2.235 | p (statistical significance vs non treatment) [3, 7]: < 0.001 | z1 (statistical value vs non treatment) [3, 7]: 3.368 | p (statistical significance vs non treatment) [3, 8]: < 0.001 | z1 (statistical value vs non treatment) [3, 8]: 3.576 | p (statistical significance vs non treatment) [3, 9]: < 0.0001 | z1 (statistical value vs non treatment) [3, 9]: 3.993 | p (statistical significance vs non treatment) [3, 10]: < 0.002 | z1 (statistical value vs non treatment) [3, 10]: 3.23 | inhibitory rate on histamine-induced contraction [4]: 74% | Inhibition % of extravasation of blue dye [5]: 41.7%

c1ccc(C(c2ccccc2)N2CCN(CCCc3nc4ccccn4n3)CC2)cc1 [the present compound HCl salt]
Inhibition % of Schultz-Dale reaction (guinea pig ileum; 2×10^^-7 M): 32.2% | Inhibition % of Schultz-Dale reaction (guinea pig ileum; 3×10^^-7 M): 55.6% | Inhibition % of Schultz-Dale reaction (guinea pig ileum; 5×10^^-7 M): 60.1%
